Our source for the IC50 and EC50 values is patent publication US7692014B2, “Inhibitors of the HIV integrase enzyme” (Pfizer, Inc., priority 2004, dated 2010).

Molecules are shown by their SMILES. pEC50, pIC50: −log10 of the molar value.

Assay [1] deals with T1, Full-length wild type HIV-1 integrase (SF1) (Human immunodeficiency virus type 1 group M subtype B, UniProt P04585).
T1 construct: made in house; host or cells: E. coli BL21 (DE3), pET24a vector
As to the kind of experiment: Integrase strand-transfer scintillation proximity assay. It is filed as biochemical. To be noted: integrase strand-transfer SPA; read-out: IC50. An excerpt: Integrase Strand-Transfer Scintillation Proximity Assay Oligonucleotides
The annealed product represents preprocessed viral ds-DNA derived from the LTR U5 sequence of the viral genome. A ds-DNA control to test for non-specific interactions was made using a 3′ di-deoxy derivative of oligonucleotide #1 annealed to oligonucleotide #2. The CA overhang at the 5′ end of the non-biotinylated strand of the ds-DNA was created artificially by using a complimentary DNA oligonucleotide shortened by 2 base pairs. This configuration eliminates the requisite 3′ processing step of the integrase enzyme prior to the strand-transfer mechanism.
Host ds-DNA was prepared as an unlabeled and [^3H]-thymidine labeled product from annealed oligonucleotide #3—5-[…]-3′ (SEQ ID NO: 3), and oligonucleotide #4—5′-[…]-3′ (SEQ ID NO: 4), both synthesized by TriLink BioTechnologies, Inc. (San Diego, Calif.). The annealed product had overhanging 3′ ends of poly(dA). […] The radiolabeled product was purified using a NENSORB cartridge and stored in stabilized aqueous solution (PerkinElmer).
Reagents: Streptavidin-coated polyvinyltoluene (PVT) SPA beads were purchased from Amersham Biosciences (Piscataway, N.J.). Cesium chloride was purchased from Shelton Scientific, Inc. (Shelton, Conn.). White, polystyrene, flat-bottom, non-binding surface, 96-well plates were purchased from Corning. All other buffer components were purchased from Sigma (St. Louis, Mo.) unless otherwise indicated. Enzyme Construction: Full-length wild type HIV-1 integrase (SF1) sequence (amino acids 1-288) was constructed in a pET24a vector (Novagen, Madison, Wis.). […] Enzyme Purification: Full length wild-type HIV Integrase was expressed in E.coli BL21 (DE3) cells and induced with 1 mM isopropyl-1 thio-β-D-galactopyranoside (IPTG) when cells reached an optical density between 0.8-1.0 at 600 nm. Cells were lysed by microfluidation in 50 mM HEPES pH 7.0, 75 mM NaCl, 5 mM DTT, 1 mM 4-(2-Aminoethyl)benzenesulfonylfluoride HCl (AEBSF). Lysate was then centrifuged 20 minutes at 11 k rpm in GSA rotor in Sorvall RC-5B at 4° C. Supernant was discarded and pellet resuspended in 50 mM HEPES pH 7.0, 750 mM NaCl, 5 mM DTT, 1 mM AEBSF and homogenized in a 40 mL Dounce homogenizer for 20 minutes on ice. Homogenate was then centrifuged 20 minutes at 11 k rpm in SS34 rotor in Sorvall RC-5B at 4° C. Supernant was discarded and pellet resuspended in 50 mM HEPES pH 7.0, 750 mM NaCl, 25 mM CHAPS, 5 mM DTT, 1 mM AEBSF. Preparation was then centrifuged 20 minutes at 11 k rpm in SS34 rotor in Sorvall RC-5B at 4° C.
Supernant was then diluted 1:1 with 50 mM HEPES pH 7.0, 25 mM CHAPS, 1 mM DTT, 1 mM AEBSF and loaded onto a Q-Sepharose column pre-equilibrated with 50 mM HEPES, pH 7.0, 375 mM NaCl, 25 mM CHAPS, 1 mM DTT, 1 mM AEBSF. The flow through peak was collected and NaCl diluted to 0.1 M with 50 mM HEPES pH 7.0, 25 mM CHAPS, 1 mM DTT, 0.5 mM AEBSF and loaded onto a SP-Sepharose column pre-equilibrated with 50 mM HEPES pH 7.0, 100 mM NaCl, 25 mM CHAPS, 1 mM DTT, 0.5 mM AEBSF. After washing the column with the equilibration buffer, a 100 to 400 mM NaCl gradient was run. The eluted integrase was concentrated and run on a S-300 gel diffusion column using 50 mM HEPES pH 7.0, 500 mM NaCl, 25 mM CHAPS, 1 mM DTT, 0.5 mM AEBSF. […] All columns were run in a 4° C. cold room.
Viral DNA Bead Preparation: Streptavidin-coated SPA beads were suspended to 20 mg/mL in 25 mM 3-morpholinopropanesulfonic acid (MOPS) (pH 7.2) and 1.0% NaN3.
For orientation: SPA uses beads or plates that emit light when radiolabelled molecules are held near them.

In assay [2] the test system is RF strain of HIV-1 in CEM-SS cells. As to the kind of experiment: HIV-1 cell protection assay (XTT dye reduction). It is filed as cell-based. To be noted: Human immunodeficiency virus 1, CEM-SS, 144 h, HIV-1 RF, six days. Here is the method:
HIV-1 Cell Protection Assay
The antiviral activities of potential modulator compounds (test compounds) were determined in HIV-1 cell protection assays using the RF strain of HIV-1, CEM-SS cells, and the XTT dye reduction method (Weislow, O. S. et al., J. Natl. Cancer Inst. 81: 577-586 (1989)). Subject cells were infected with HIV-1 RF virus at an moi of 0.025 to 0.819 or mock infected with medium only and added at 2×10^4 cells per well into 96 well plates containing half-log dilutions of test compounds. Six days later, 50 μl of XTT solution (1 mg/ml XTT tetrazolium and […] phenazine methosulfate) were added to the wells and the plates were reincubated for four hours. Viability, as determined by the amount of XTT formazan produced, was quantified spectrophotometrically by absorbance at 450 nm.
Data from CPE assays were expressed as the percent of formazan produced in compound-treated cells compared to formazan produced in wells of uninfected, compound-free cells. […] The therapeutic index was calculated by dividing the cytotoxicity (CC50) by the antiviral activity (EC50).

Turning to `C[C@@H](OCc1cn(Cc2ccc(F)cc2)c2cnc3c(=O)n(O)ccc3c12)c1ccccc1` [Example 38, 3-(4-fluorobenzyl)-7-hydroxy-1-{[(1R)-1-phenylethoxy]methyl}-3,7-dihydro-6H-pyrrolo[2,3-c]-1,7-naphthyridin-6-one], the pIC50 (usually the negative decadic logarithm of the IC50, by convention in mol/L) in assay [1] is 6.92. In assay [2], the negative logarithm of the EC50 (pEC50) (in general, the negative decadic logarithm of the EC50, by convention in mol/L) was 9.52.
`CCCCCN(C)Cc1cn(Cc2ccc(F)cc2)c2cnc3c(=O)n(O)ccc3c12` [Example 11, 3-(4-fluorobenzyl)-7-hydroxy-1-{[methyl(pentyl)amino]methyl}-3,7-dihydro-6H-pyrrolo[2,3-c]-1,7-naphthyridin-6-one]: the pIC50 in assay [1] is 8.22.
On the same count and under the same terms, next, `O=c1c2ncc3c(ccn3Cc3ccc(F)cc3)c2ccn1O` [Example 1, 3-(4-Fluorobenzyl)-7-hydroxy-3,7-dihydro-6H-pyrrolo[2,3-c]-1,7-naphthyridin-6-one]: 7.70; `CN(C)S(=O)(=O)c1cn(Cc2ccc(F)cc2)c2cnc3c(=O)n(O)ccc3c12` [Example 23, 3-(4-fluorobenzyl)-7-hydroxy-N,N-dimethyl-6-oxo-6,7-dihydro-3H-pyrrolo[2,3-c]-1-naphthyridine-1-sulfonamide]: 8.00.
For `O=C(c1cn(Cc2ccc(F)cc2)c2cnc3c(=O)n(O)ccc3c12)N1CCCC1` [Example 26, 3-(4-fluorobenzyl)-7-hydroxy-1-(pyrrolidin-1-ylcarbonyl)-3,7-dihydro-6H-pyrrolo[2,3-c]-1,7-naphthyridin-6-one], the pIC50 in assay [1] was 8.05.
The same measure, in the same setting: the figure for `O=c1c2ncc3c(c(CN4CCOCC4)cn3Cc3ccc(F)cc3)c2ccn1O` [Example 57, 3-(4-fluorobenzyl)-7-hydroxy-1-(morpholin-4-ylmethyl)-3,7-dihydro-6H-pyrrolo[2,3-c]-1,7-naphthyridin-6-one] is 8.15; for `CCCN(CCO)Cc1cn(Cc2ccc(F)cc2)c2cnc3c(=O)n(O)ccc3c12` [Example 48, 3-(4-fluorobenzyl)-7-hydroxy-1-{[(2-hydroxyethyl)(propyl)amino]methyl}-3,7-dihydro-6H-pyrrolo[2,3-c]-1,7-naphthyridin-6-one] it is 7.96.
Same read-out and setting: next, `O=C1CCN(Cc2cn(Cc3ccc(F)cc3)c3cnc4c(=O)n(O)ccc4c23)CCN1` [Example 19, 3-(4-fluorobenzyl)-7-hydroxy-1-[(5-oxo-1,4-diazepan-1-yl)methyl]-3,7-dihydro-6H-pyrrolo[2,3-c]-1,7-naphthyridin-6-one]: 8.30.
`COCCOCc1cn(Cc2ccc(F)cc2)c2cnc3c(=O)n(O)ccc3c12` [Example 9, 3-(4-fluorobenzyl)-7-hydroxy-1-[(2-methoxyethoxy)methyl]-3,7-dihydro-6H-pyrrolo[2,3-c]-1,7-naphthyridin-6-one]: the pIC50 in assay [1] is 7.82. This compound showed a pEC50 in assay [2] of 9.28.
As for `CC(C)(C)OC(=O)N1CCC(COCc2cn(Cc3ccc(F)cc3)c3cnc4c(=O)n(O)ccc4c23)CC1` [Example 32], the pIC50 in assay [1] is 6.97.
Consider `Cc1cc2c(ncc3c2ccn3Cc2ccc(F)cc2)c(=O)n1O` [Example 47, 3-(4-fluorobenzyl)-7-hydroxy-8-methyl-3,7-dihydro-6H-pyrrolo[2,3-c]-1,7-naphthyridin-6-one], for which, in assay [1], the negative-log IC50 (pIC50) was 7.96.
